Source: PubChem BioAssay (NCI)
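Cultured in 96-well plates, cells were exposed to test compound for 48 hours across five concentrations. TGI: total growth inhibition.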

Key:
Experiment in all cases: growth of human tumour cells (NCI), 48 h
NCI-H522 lung = tested on: NCI-H522 lung
MDA-MB-435 = tested on: MDA-MB-435
EKVX NSCLC = tested on: EKVX NSCLC
OVCAR-3 ovarian = tested on: OVCAR-3 ovarian
HOP-92 NSCLC = tested on: HOP-92 NSCLC
SF-268 CNS = tested on: SF-268 CNS
SF-295 CNS = tested on: SF-295 CNS
LOX IMVI melanoma = tested on: LOX IMVI melanoma
SNB-75 CNS = tested on: SNB-75 CNS
T-47D breast = tested on: T-47D breast
SK-MEL-5 melanoma = tested on: SK-MEL-5 melanoma
COLO 205 colon = tested on: COLO 205 colon
PC-3 prostate = tested on: PC-3 prostate
SK-MEL-2 melanoma = tested on: SK-MEL-2 melanoma
SR leukemia = tested on: SR leukemia
MALME-3M melanoma = tested on: MALME-3M melanoma
MCF7 breast = tested on: MCF7 breast
A549 NSCLC = tested on: A549 NSCLC
SNB-19 CNS = tested on: SNB-19 CNS
SK-OV-3 ovarian = tested on: SK-OV-3 ovarian
NCI-H460 lung = tested on: NCI-H460 lung
HS 578T breast = tested on: HS 578T breast
MDA-MB-231 breast = tested on: MDA-MB-231 breast
UO-31 renal = tested on: UO-31 renal
NCI-H23 lung = tested on: NCI-H23 lung
K-562 leukemia = tested on: K-562 leukemia
RXF 393 renal = tested on: RXF 393 renal
SW-620 colon = tested on: SW-620 colon
UACC-257 melanoma = tested on: UACC-257 melanoma
OVCAR-8 ovarian = tested on: OVCAR-8 ovarian
HCT-116 colon = tested on: HCT-116 colon
KM12 colon = tested on: KM12 colon
UACC-62 melanoma = tested on: UACC-62 melanoma
SF-539 CNS = tested on: SF-539 CNS
RPMI-8226 leukemia = tested on: RPMI-8226 leukemia
HL-60(TB) leukemia = tested on: HL-60(TB) leukemia
SN12C renal = tested on: SN12C renal
OVCAR-5 ovarian = tested on: OVCAR-5 ovarian
786-0 renal = tested on: 786-0 renal
ACHN renal = tested on: ACHN renal
BT-549 breast = tested on: BT-549 breast
CAKI-1 renal = tested on: CAKI-1 renal
M14 melanoma = tested on: M14 melanoma
HCT-15 colon = tested on: HCT-15 colon
MDA-N = tested on: MDA-N
HCC-2998 colon = tested on: HCC-2998 colon
TK-10 renal = tested on: TK-10 renal
CCRF-CEM leukemia = tested on: CCRF-CEM leukemia
SK-MEL-28 melanoma = tested on: SK-MEL-28 melanoma
IGROV1 ovarian = tested on: IGROV1 ovarian
OVCAR-4 ovarian = tested on: OVCAR-4 ovarian
MOLT-4 leukemia = tested on: MOLT-4 leukemia
HOP-62 NSCLC = tested on: HOP-62 NSCLC
NCI-H226 lung = tested on: NCI-H226 lung
NCI/ADR-RES ovarian = tested on: NCI/ADR-RES ovarian
A498 renal = tested on: A498 renal
DU-145 prostate = tested on: DU-145 prostate
HT29 colon = tested on: HT29 colon
U251 CNS = tested on: U251 CNS

In the case of `Cc1ccc([N+](=O)[O-])cc1S(=O)(=O)Nc1ccc(C(=O)/C=C/c2cccs2)cc1`, the TGI (NCI-H522 lung) is reported as 50.8 µM, the TGI (MDA-MB-435) is reported as 32.7 µM and the TGI (EKVX NSCLC) is reported as 51.7 µM. For the same molecule, the TGI (OVCAR-3 ovarian) was 39.2 µM, the TGI (HOP-92 NSCLC) was > 100 µM and the TGI (SF-268 CNS) was > 100 µM. The TGI (SF-295 CNS) was > 100 µM, the TGI (LOX IMVI melanoma) was 45.2 µM and the TGI (SNB-75 CNS) was 36.9 µM. The TGI (T-47D breast) was 91.7 µM, the TGI (SK-MEL-5 melanoma) was 33.1 µM and the TGI (COLO 205 colon) was 95.9 µM. It also gave a TGI (PC-3 prostate) of 43.8 µM, a TGI (SK-MEL-2 melanoma) of 41.8 µM and a TGI (SR leukemia) of 68.9 µM. For the same molecule, the TGI (MALME-3M melanoma) was > 100 µM, the TGI (MCF7 breast) was 39.2 µM and the TGI (A549 NSCLC) was > 100 µM. For the same molecule, the TGI (SNB-19 CNS) was 55.9 µM, the TGI (SK-OV-3 ovarian) was > 100 µM and the TGI (NCI-H460 lung) was > 100 µM. The TGI (HS 578T breast) was > 100 µM, the TGI (MDA-MB-231 breast) was 31.1 µM and the TGI (UO-31 renal) was 40.4 µM. For the same molecule, the TGI (NCI-H23 lung) was 46.1 µM, the TGI (K-562 leukemia) was > 100 µM and the TGI (RXF 393 renal) was 32.9 µM. For the same molecule, the TGI (SW-620 colon) was 50.1 µM, the TGI (UACC-257 melanoma) was 46.6 µM and the TGI (OVCAR-8 ovarian) was > 100 µM. The TGI (HCT-116 colon) was 35.8 µM, the TGI (KM12 colon) was 32.5 µM and the TGI (UACC-62 melanoma) was 32.1 µM. For the same molecule, the TGI (SF-539 CNS) was > 100 µM, the TGI (RPMI-8226 leukemia) was > 100 µM and the TGI (HL-60(TB) leukemia) was 62.9 µM. For the same molecule, the TGI (SN12C renal) was 74.8 µM, the TGI (OVCAR-5 ovarian) was > 100 µM and the TGI (786-0 renal) was 37.4 µM. It also gave a TGI (ACHN renal) of 87.6 µM, a TGI (BT-549 breast) of 40.1 µM and a TGI (CAKI-1 renal) of 38.8 µM. The TGI (M14 melanoma) was 45.3 µM, the TGI (HCT-15 colon) was 64.3 µM and the TGI (MDA-N) was 73 µM. The TGI (HCC-2998 colon) was 34.6 µM, the TGI (TK-10 renal) was > 100 µM and the TGI (CCRF-CEM leukemia) was > 100 µM. The TGI (SK-MEL-28 melanoma) was 58.7 µM, the TGI (IGROV1 ovarian) was > 100 µM and the TGI (OVCAR-4 ovarian) was 54.3 µM. For the same molecule, the TGI (MOLT-4 leukemia) was 64.1 µM, the TGI (HOP-62 NSCLC) was 48 µM and the TGI (NCI-H226 lung) was 71.5 µM. It also gave a TGI (NCI/ADR-RES ovarian) of 59.3 µM, a TGI (A498 renal) of 45.1 µM and a TGI (DU-145 prostate) of 54.2 µM. It also gave a TGI (HT29 colon) of 41.6 µM.

`Cc1ccc([N+](=O)[O-])cc1S(=O)(=O)Nc1ccc(C2=NN(C(=O)c3ccccc3)C(c3ccccc3)C2)cc1` (centres undefined) was tested, and the TGI (NCI-H522 lung) was 58.2 µM, the TGI (MDA-MB-435) was > 100 µM and the TGI (EKVX NSCLC) was 59.7 µM. For the same molecule, the TGI (OVCAR-3 ovarian) was 49 µM, the TGI (HOP-92 NSCLC) was 62.9 µM and the TGI (SF-268 CNS) was > 100 µM. The TGI (SF-295 CNS) was > 100 µM, the TGI (LOX IMVI melanoma) was > 100 µM and the TGI (SNB-75 CNS) was 49.9 µM. For the same molecule, the TGI (T-47D breast) was 97.5 µM, the TGI (SK-MEL-5 melanoma) was 30.4 µM and the TGI (COLO 205 colon) was 33.9 µM. The TGI (PC-3 prostate) was > 100 µM, the TGI (SK-MEL-2 melanoma) was 38.7 µM and the TGI (SR leukemia) was > 100 µM. For the same molecule, the TGI (MALME-3M melanoma) was 66.6 µM, the TGI (MCF7 breast) was 75.7 µM and the TGI (A549 NSCLC) was > 100 µM. For the same molecule, the TGI (SNB-19 CNS) was > 100 µM, the TGI (SK-OV-3 ovarian) was 73.7 µM and the TGI (HS 578T breast) was > 100 µM. For the same molecule, the TGI (MDA-MB-231 breast) was 46.3 µM, the TGI (UO-31 renal) was > 100 µM and the TGI (NCI-H23 lung) was 68.2 µM. The TGI (K-562 leukemia) was > 100 µM, the TGI (RXF 393 renal) was 57.3 µM and the TGI (SW-620 colon) was > 100 µM. For the same molecule, the TGI (UACC-257 melanoma) was 64.7 µM, the TGI (OVCAR-8 ovarian) was > 100 µM and the TGI (HCT-116 colon) was > 100 µM. For the same molecule, the TGI (KM12 colon) was > 100 µM, the TGI (SF-539 CNS) was 55.2 µM and the TGI (RPMI-8226 leukemia) was > 100 µM. The TGI (HL-60(TB) leukemia) was 81.8 µM, the TGI (SN12C renal) was 63.1 µM and the TGI (OVCAR-5 ovarian) was > 100 µM. For the same molecule, the TGI (786-0 renal) was 48.2 µM, the TGI (ACHN renal) was 93.6 µM and the TGI (BT-549 breast) was 96.9 µM. The TGI (CAKI-1 renal) was > 100 µM, the TGI (M14 melanoma) was > 100 µM and the TGI (HCT-15 colon) was > 100 µM. For the same molecule, the TGI (MDA-N) was 67.4 µM, the TGI (TK-10 renal) was 68.8 µM and the TGI (CCRF-CEM leukemia) was > 100 µM. The TGI (SK-MEL-28 melanoma) was > 100 µM, the TGI (IGROV1 ovarian) was 95.2 µM and the TGI (OVCAR-4 ovarian) was > 100 µM. For the same molecule, the TGI (MOLT-4 leukemia) was > 100 µM, the TGI (U251 CNS) was > 100 µM and the TGI (HOP-62 NSCLC) was 72 µM. The TGI (NCI-H226 lung) was 72.2 µM, the TGI (NCI/ADR-RES ovarian) was > 100 µM and the TGI (A498 renal) was 51.3 µM. For the same molecule, the TGI (DU-145 prostate) was > 100 µM and the TGI (HT29 colon) was > 100 µM.
